In patent US20150147273A1, “RADIOLABELED ANALOG(S) OF COMPOUND 0118 AND USE THEREOF IN CONNECTION WITH PET AND/OR SPECT IMAGING TO DETERMINE WHETHER A PHARMACEUTICAL CONTAINING COMPOUND 0118 IS A CANDIDATE CANCER TREATMENT FOR A PATIENT” (KONINKLIJKE PHILIPS N.V., priority 2012, published 2015):

Each molecule was assayed on MA148 human ovarian carcinoma cells (assay: [3H]thymidine incorporation cell proliferation assay (FIG. 15)). Conditions: compared with 0118.
Format: cell-based
Text: Evaluation of the anti-angiogenic activity of lower-rim substituted 0118 analogues (compound 4, compound 5) and equatorially substituted 0118 analogues (compound 13, compound 14, compound 18a, compound 18b, compound 18c).

SMILES | potency of inhibition of MA148 cell proliferation relative to parent compound 0118
CN(C)CCNC(=O)COc1c2cccc1Cc1cccc(c1OCC(=O)NCCN(C)C)Cc1cccc(c1OCC(=O)NCCN(C)C)Cc1cccc(c1OCCc1cn(CCF)nn1)C2 [compound 5, 25,26,27-Tris-N—(N,N-dimethyl-2-aminoethyl)carbamoylmethoxy-28-{2′-[1-(2-fluorethyl)-1H-[1,2,3]triazo-4-yl]ethyloxy}calix[4]arene] | more potent inhibitor of MA148 cell proliferation
C#CCC1c2cccc(c2OCC(=O)NCCN(C)C)Cc2cccc(c2OCC(=O)NCCN(C)C)Cc2cccc(c2OCC(=O)NCCN(C)C)Cc2cccc1c2OCC(=O)NCCN(C)C [compound 13, 25,26,27,28-Tetrakis-N—(N,N-dimethyl-2-aminoethyl)carbamoylmethoxy-2-(prop-2′-yn-1′-yl)calix[4]arene] | at least three times more potent than 0118
CCCC1c2cccc(c2OCC(=O)NCCN(C)C)Cc2cccc(c2OCC(=O)NCCN(C)C)Cc2cccc(c2OCC(=O)NCCN(C)C)Cc2cccc1c2OCC(=O)NCCN(C)C [compound 18b, 25,26,27,28-Tetrakis-N—(N,N-dimethyl-2-aminoethyl)carbamoylmethoxy-2-propylcalix[4]arene] | at least three times more potent than 0118
C#CCCOc1c2cccc1Cc1cccc(c1OCC(=O)NCCN(C)C)Cc1cccc(c1OCC(=O)NCCN(C)C)Cc1cccc(c1OCC(=O)NCCN(C)C)C2 [compound 4, 25,26,27-Tris-N—(N,N-dimethyl-2-aminoethyl)carbamoylmethoxy-28-(3′-butynyloxy)calix[4]arene] | at least equipotent
CN(C)CCNC(=O)COc1c2cccc1Cc1cccc(c1OCC(=O)NCCN(C)C)C(Cc1cn(CCF)nn1)c1cccc(c1OCC(=O)NCCN(C)C)Cc1cccc(c1OCC(=O)NCCN(C)C)C2 [compound 14, 25,26,27,28-Tetrakis-N—(N,N-dimethyl-2-aminoethyl)carbamoylmethoxy-2-{[1-(2-fluorethyl)-1H-[1,2,3]triazo-4-yl]methyl}calix[4]arene] | at least three times more potent than 0118

Each molecule was assayed on endothelial cell proliferation (assay: endothelial cell proliferation assays). Conditions: not given.
Format: cell-based
Text: As an alternative to upper-rim substitution, [^18F]-labeled synthons may also be introduced at the lower rim or at an equatorial position of the calix[4]arene core of compound 0118. […] Based on this knowledge, close mimetics of compound 0118 have been produced, where one of the four lower rim substituents is replaced by a substituent containing an alkyne- or azide-functional group, providing access to [^18F]fluoroalkyltriazole-labeled compound 0118 analogues via Huisgen 1,3-dipolar cycloaddition reaction with the corresponding [^18F]fluoroalkynes and [^18F]fluoroazides, respectively.

SMILES | anti-angiogenic potency compared with compound 0118
CN(C)CCNC(=O)COc1c2cccc1Cc1cccc(c1OCC(=O)NCCN(C)C)Cc1cccc(c1OCC(=O)NCCN(C)C)Cc1cccc(c1OCCc1cn(CCF)nn1)C2 [compound 5, 25,26,27-Tris-N—(N,N-dimethyl-2-aminoethyl)carbamoylmethoxy-28-{2′-[1-(2-fluorethyl)-1H-[1,2,3]triazo-4-yl]ethyloxy}calix[4]arene] | comparable anti-angiogenic potency
